From the supplement of paper PMC10307832

Key:
Assay in all cases: relative viability (nuclei count vs DMSO), 5 days (fraction); higher = more cells survive
[1] = compound: CCC1=CN=CN=C1N2CCN(CC2)CC3=NC4=C(N3)C=C(C=C4)C(F)(F)F + CC(=O)Nc1cccc(-n2c(=O)n(C3CC3)c(=O)c3c(Nc4ccc(I)cc4F)n(C)c(=O)c(C)c32)c1 [Trametinib] (partner 0.02 µM)
Outline: (§1)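 Medians of duplicate plates are given as relative viability. That measure is the nuclei count in treated wells divided by the count in vehicle wells. Counts were taken on 4× images of lung cancer cell lines in 1536-well plates, 5 days after pin-tool dosing the day after seeding with one drug alone or a fixed anchor-drug dose plus five library-drug doses (not always all listed) in √10 steps.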

[2] = compound: CCC1=CN=CN=C1N2CCN(CC2)CC3=NC4=C(N3)C=C(C=C4)C(F)(F)F + Nc1nc2[nH]cc(CCc3ccc(C(=O)N[C@@H](CCC(=O)O)C(=O)O)cc3)c2c(=O)[nH]1 [Pemetrexed] (partner 0.2 µM)
Outline: as §1

[3] = compound: CCn1c(-c2nonc2N)nc2cnc(Oc3cccc(NC(=O)c4ccc(OCCN5CCOCC5)cc4)c3)cc21 + CCNC(=O)c1noc(-c2cc(C(C)C)c(O)cc2O)c1-c1ccc(CN2CCOCC2)cc1 [Luminespib] (partner 0.01 µM)
Outline: as §1

[4] = compound: CCn1c(-c2nonc2N)nc2cnc(Oc3cccc(NC(=O)c4ccc(OCCN5CCOCC5)cc4)c3)cc21 + NC(=O)Nc1cc(-c2cccc(F)c2)sc1C(=O)N[C@H]1CCCNC1 [AZD7762] (partner 0.2 µM)
Outline: as §1

Row | Cell Line | relative viability ([1]; first compound 0.04 µM) | relative viability ([1]; first compound 0.1265 µM) | relative viability ([1]; first compound 0.4 µM) | relative viability ([1]; first compound 4 µM) | relative viability ([2]; first compound 0.04 µM) | relative viability ([2]; first compound 0.1265 µM) | relative viability ([2]; first compound 0.4 µM) | relative viability ([2]; first compound 4 µM) | relative viability ([3]; first compound 0.04 µM) | relative viability ([3]; first compound 0.1265 µM) | relative viability ([3]; first compound 0.4 µM) | relative viability ([3]; first compound 1.265 µM) | relative viability ([3]; first compound 4 µM) | relative viability ([4]; first compound 0.04 µM) | relative viability ([4]; first compound 0.1265 µM) | relative viability ([4]; first compound 0.4 µM) | relative viability ([4]; first compound 1.265 µM) | relative viability ([4]; first compound 4 µM) | relative viability ([1]; first compound 1.265 µM) | relative viability ([2]; first compound 1.265 µM)
1 | SW 900 | 0.545 | 0.679 | 0.857 | 0.7 | 0.439 | 0.464 | 0.495 | 0.458 | 0.178 | 0.197 | 0.178 | 0.154 | 0.174 | 0.668 | 0.59 | 0.647 | 0.435 | 0.495 |  | 
2 | NCI-H1944 | 0.519 | 0.406 | 0.4 | 0.352 | 0.702 | 0.561 | 0.61 | 0.699 | 0.575 | 0.728 | 0.765 | 0.675 | 0.56 | 0.5 | 0.524 | 0.297 | 0.249 | 0.202 | 0.324 | 0.541
3 | NCI-H838 | 0.574 | 0.481 | 0.455 | 0.648 | 0.248 | 0.239 | 0.247 | 0.225 | 0.366 | 0.235 | 0.252 | 0.2 | 0.208 | 0.946 | 0.725 | 0.669 | 0.635 | 0.691 | 0.412 | 0.244
4 | NCI-H1650 | 0.499 | 0.707 | 0.573 | 0.672 | 0.456 | 0.333 | 0.401 | 0.393 | 0.248 | 0.198 | 0.196 | 0.191 | 0.183 |  |  |  |  |  | 0.499 | 0.364
5 | HCC-827 | 0.483 | 0.51 | 0.544 | 0.553 | 0.268 | 0.221 | 0.276 | 0.278 | 1.09 | 0.592 | 0.792 | 0.591 | 0.588 | 0.241 | 0.23 | 0.233 | 0.178 | 0.203 | 0.497 | 0.242
6 | HCC-366 | 0.344 | 0.372 | 0.349 | 0.269 | 0.174 | 0.22 | 0.156 | 0.15 |  |  |  |  |  | 0.233 | 0.123 | 0.101 | 0.0314 | 0.0325 | 0.285 | 0.137
7 | HARA | 0.879 | 0.76 | 0.454 | 0.716 | 0.276 | 0.242 | 0.227 | 0.222 | 0.839 | 1.18 | 0.682 | 0.801 | 0.678 | 0.215 | 0.161 | 0.148 | 0.207 | 0.198 | 0.472 | 0.226
8 | NCI-H441 | 0.482 | 0.452 | 0.464 | 0.499 | 0.231 | 0.274 | 0.274 | 0.265 | 0.333 | 0.342 |  | 0.326 | 0.416 | 1.34 | 1.05 | 1.21 | 0.961 | 0.698 | 0.37 | 0.204
9 | LXF-289 | 0.709 | 0.696 | 0.659 | 0.67 | 0.938 | 0.777 | 0.915 | 0.788 | 0.791 | 0.638 | 0.798 | 0.701 | 0.654 | 1.19 | 1.23 | 0.638 | 0.506 | 0.224 | 0.684 | 0.977
